In patent publication US20060194837A1, “Tetrahydroisoquinoline compounds” (priority 2004, published 2006):

Key:
human H3 receptor = target: T1, human H3 receptor (Homo sapiens, UniProt Q9Y5N1); assay: H3 receptor binding (N-[3H]-α-methylhistamine displacement); conditions: membranes of SK-N-MC cells expressing cloned human H3 receptor, 0.8 nM N-[3H]-α-methylhistamine, 60 min at 25° C.
T1 construct: expressed in transfected cells

Rat SERT = target: T2, Rat SERT (Rattus norvegicus, UniProt P31652); assay: Rat brain SERT binding ([3H]-citalopram displacement); conditions: rat brain membranes without cerebellum, 0.6 nM [3H]-citalopram, 60 min at 25° C.; read-out: Rat SERT Ki
T2 construct: A rat brain without cerebellum (Zivic Laboratories, Inc.—Pittsburgh, Pa.) was homogenized; tissue Zivic Laboratories, Inc; host or cells: rat brain without cerebellum, membranes
Protocol: The supernatant was removed and re-centrifuged at 15,000 rpm for 30 min. […] Membranes were incubated with 0.6 nM [^3H]-Citalopram plus/minus test compounds for 60 min at 25° C. and harvested by rapid filtration over GF/C glass fiber filters (pretreated with 0.3% polyethylenimine) followed by four washes with ice-cold buffer.

human SERT = target: T3, human SERT (Homo sapiens, UniProt P31645); assay: Human SERT binding (3H-citalopram displacement); conditions: HEK293 membranes expressing human SERT, rt 1 h
T3 construct: expressed in transfected cells; host or cells: HEK293 membranes
Protocol: Homogenized HEK293 (Human Embryonic Kidney) membranes expressing the human SERT were incubated with ^3H-citalopram (SERT) at rt for 1 h in 50 mM Tris, 120 mM NaCl, 5 mM KCl (pH 7.4). […] The membranes were washed and the radioactivity was counted as above.

T2 sequence (P31652 whole entry): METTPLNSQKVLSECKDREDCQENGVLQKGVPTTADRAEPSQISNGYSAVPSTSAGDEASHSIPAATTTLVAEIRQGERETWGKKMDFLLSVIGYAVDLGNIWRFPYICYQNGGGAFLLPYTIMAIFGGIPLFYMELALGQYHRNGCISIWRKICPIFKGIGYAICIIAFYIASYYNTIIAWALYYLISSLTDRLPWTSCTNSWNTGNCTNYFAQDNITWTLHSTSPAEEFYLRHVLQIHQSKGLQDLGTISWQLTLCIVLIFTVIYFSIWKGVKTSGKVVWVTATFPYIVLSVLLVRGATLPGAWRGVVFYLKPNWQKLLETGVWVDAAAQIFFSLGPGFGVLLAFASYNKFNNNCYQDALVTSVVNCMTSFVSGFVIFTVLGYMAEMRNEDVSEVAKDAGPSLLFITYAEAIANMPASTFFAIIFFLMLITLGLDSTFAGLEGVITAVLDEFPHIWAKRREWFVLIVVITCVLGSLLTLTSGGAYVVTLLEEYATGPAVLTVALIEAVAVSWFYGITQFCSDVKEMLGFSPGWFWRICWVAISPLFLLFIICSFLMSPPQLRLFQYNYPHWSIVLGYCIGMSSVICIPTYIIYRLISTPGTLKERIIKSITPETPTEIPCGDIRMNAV
T1 sequence (Q9Y5N1 whole entry): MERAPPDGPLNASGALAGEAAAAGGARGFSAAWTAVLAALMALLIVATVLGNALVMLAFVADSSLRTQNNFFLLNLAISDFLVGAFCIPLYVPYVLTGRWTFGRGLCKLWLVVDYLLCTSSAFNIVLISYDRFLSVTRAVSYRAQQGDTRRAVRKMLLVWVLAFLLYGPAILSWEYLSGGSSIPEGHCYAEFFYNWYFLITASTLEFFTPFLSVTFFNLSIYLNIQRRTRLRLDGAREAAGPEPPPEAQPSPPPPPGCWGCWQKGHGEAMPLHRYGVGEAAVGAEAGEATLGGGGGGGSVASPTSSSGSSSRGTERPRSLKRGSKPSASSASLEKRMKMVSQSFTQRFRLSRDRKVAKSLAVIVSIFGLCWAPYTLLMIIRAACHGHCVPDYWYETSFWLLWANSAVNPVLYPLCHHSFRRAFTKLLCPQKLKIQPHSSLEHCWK
T3 sequence (P31645 whole entry): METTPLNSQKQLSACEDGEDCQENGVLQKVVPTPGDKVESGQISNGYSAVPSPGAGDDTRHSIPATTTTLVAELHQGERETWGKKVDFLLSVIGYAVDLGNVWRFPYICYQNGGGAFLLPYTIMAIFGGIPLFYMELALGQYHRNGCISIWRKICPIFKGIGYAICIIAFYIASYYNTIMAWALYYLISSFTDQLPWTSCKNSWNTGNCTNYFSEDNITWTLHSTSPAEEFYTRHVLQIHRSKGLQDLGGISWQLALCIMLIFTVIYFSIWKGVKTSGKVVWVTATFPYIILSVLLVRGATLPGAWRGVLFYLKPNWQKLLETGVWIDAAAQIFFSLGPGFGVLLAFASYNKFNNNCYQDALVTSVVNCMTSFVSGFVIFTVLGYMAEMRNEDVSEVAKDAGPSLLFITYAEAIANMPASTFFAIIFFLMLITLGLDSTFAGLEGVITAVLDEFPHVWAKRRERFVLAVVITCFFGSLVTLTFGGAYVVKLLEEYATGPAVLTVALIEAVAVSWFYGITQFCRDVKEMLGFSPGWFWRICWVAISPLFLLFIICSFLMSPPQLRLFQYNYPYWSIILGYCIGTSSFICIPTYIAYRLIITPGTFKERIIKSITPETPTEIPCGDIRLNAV

Row | Structure (SMILES) | Ki (human H3 receptor) [nM] | Ki (Rat SERT) [nM] | Ki (human SERT) [nM]
1 | COc1ccc(C2CN(C)Cc3cc(CCCCN4CCN(C(C)C)CC4)ccc32)cc1 (stereo not drawn) [Example 283, 7-[4-(4-Isopropyl-piperazin-1-yl)-butyl]-4-(4-methoxy-phenyl)-2-methyl-1,2,3,4-tetrahydro-isoquinoline] | 13 | 4 | 7
2 | COc1ccc(C2CN(C)Cc3cc(OCCCN4CCC(CCO)CC4)ccc32)cc1 (stereo not drawn) [Example 26, 2-(1-{3-[4-(4-Methoxy-phenyl)-2-methyl-1,2,3,4-tetrahydro-isoquinolin-7-yloxy]-propyl}-piperidin-4-yl)-ethanol] | 12 | 2 | 5
3 | COc1ccc(C2CN(C(C)(C)C)Cc3cc(OCCCN4CCCCC4)ccc32)cc1 (stereo not drawn) [Example 64, 2-tert-Butyl-4-(4-methoxy-phenyl)-7-(3-piperidin-1-yl-propoxy)-1,2,3,4-tetrahydro-isoquinoline] | 1 | 222 | 252
4 | COc1ccc(C2CN(C)Cc3cc(OCCCN4CCN(C(=O)C5CC5)CC4)ccc32)cc1 (stereo not drawn) [Example 7, Cyclopropyl-(4-{3-[4-(4-methoxy-phenyl)-2-methyl-1,2,3,4-tetrahydro-isoquinolin-7-yloxy]-propyl}-piperazin-1-yl)-methanone] | 315 | 14 | 14
5 | COc1ccc(C2CN(C)Cc3cc(OCCCN4CCN(C(=O)c5cn(C)cn5)CC4)ccc32)cc1 (stereo not drawn) [Example 14, (4-{3-[4-(4-Methoxy-phenyl)-2-methyl-1,2,3,4-tetrahydro-isoquinolin-7-yloxy]-propyl}-piperazin-1-yl)-(1-methyl-1H-imidazol-4-yl)-methanone] | 2000 | 19 | 18
6 | CSc1ccc(C2CN(C)Cc3cc(OC4CCN(CCF)CC4)ccc32)cc1 (stereo not drawn) [Example 179, 7-[1-(2-Fluoro-ethyl)-piperidin-4-yloxy]-2-methyl-4-(4-methylsulfanyl-phenyl)-1,2,3,4-tetrahydro-isoquinoline] | 5 | 3 | 4
7 | CN1Cc2cc(OCCCN3CCCCC3)ccc2C(c2ccc(OC(F)(F)F)cc2)C1 (stereo not drawn) [Example 222, 2-Methyl-7-(3-piperidin-1-yl-propoxy)-4-(4-trifluoromethoxy-phenyl)-1,2,3,4-tetrahydro-isoquinoline] | 30 | 30 | 18
8 | CCOc1ccc(C2CN(C)Cc3cc(OCCCN4CCC(F)CC4)ccc32)cc1 (stereo not drawn) [Example 145, 4-(4-Ethoxy-phenyl)-7-[3-(4-fluoro-piperidin-1-yl)-propoxy]-2-methyl-1,2,3,4-tetrahydro-isoquinoline] | 5 | 3 | 5
9 | COc1ccc(C2CN(C)Cc3cc(OCCCN4CCOC[C@@H]4C)ccc32)c(F)c1 (stereo partly drawn) [Example 220, 4-(2-Fluoro-4-methoxy-phenyl)-2-methyl-7-[3-(3S-methyl-morpholin-4-yl)-propoxy]-1,2,3,4-tetrahydro-isoquinoline] | 6 | 4 | 12
10 | COc1ccc(C2CN(C)Cc3cc(OCCCN4CCCC(CO)C4)ccc32)cc1 (stereo not drawn) [Example 23, (1-{3-[4-(4-Methoxy-phenyl)-2-methyl-1,2,3,4-tetrahydro-isoquinolin-7-yloxy]-propyl}-piperidin-3-yl)-methanol] | 2 | 2 | 4
11 | COc1ccc(C2CN(C)Cc3cc(OCC4CCN(CCF)CC4)ccc32)cc1 (stereo not drawn) [Example 116, 7-[1-(2-Fluoro-ethyl)-piperidin-4-ylmethoxy]-4-(4-methoxy-phenyl)-2-methyl-1,2,3,4-tetrahydro-isoquinoline] | 8 | 6 | 7
12 | CN1Cc2cc(OCCCN3CCC(F)CC3)ccc2C(c2ccc(N3CCOCC3)cc2)C1 (stereo not drawn) [Example 134, 7-[3-(4-Fluoro-piperidin-1-yl)-propoxy]-2-methyl-4-(4-morpholin-4-yl-phenyl)-1,2,3,4-tetrahydro-isoquinoline] | 2 | 28 | 30
13 | COc1ccc(C2CN(C)Cc3cc(CCCCN4CCSCC4)ccc32)cc1 (stereo not drawn) [Example 282, 4-(4-Methoxy-phenyl)-2-methyl-7-(4-thiomorpholin-4-yl-butyl)-1,2,3,4-tetrahydro-isoquinoline] | 25 | 6 | 17
14 | CN1Cc2cc(OCCCN3CCC(F)CC3)ccc2C(c2cccc(F)c2)C1 (stereo not drawn) [Example 48, 4-(3-Fluoro-phenyl)-7-[3-(4-fluoro-piperidin-1-yl)-propoxy]-2-methyl-1,2,3,4-tetrahydro-isoquinoline] | 6 | 31 | 118
15 | COc1ccc(C2CN(C)Cc3cc(OC4CCNCC4)ccc32)cc1 (stereo not drawn) [Example 148, 4-(4-Methoxy-phenyl)-2-methyl-7-(piperidin-4-yloxy)-1,2,3,4-tetrahydro-isoquinoline] | 262 | 3 | 5
16 | COc1ccc(C2CN(C)Cc3cc(OCCCN4C[C@@H](C)O[C@@H](C)C4)ccc32)cc1 (stereo partly drawn) [Example 32, 7-[3-(2,6-Dimethyl-morpholin-4-yl)-propoxy]-4-(4-methoxy-phenyl)-2-methyl-1,2,3,4-tetrahydro-isoquinoline] | 21 | 8 | 9
17 | COc1ccc(C2CN(C)Cc3cc(OCC(O)CN4CCCCC4)ccc32)cc1 (stereo not drawn) [Example 42, 1-[4-(4-Methoxy-phenyl)-2-methyl-1,2,3,4-tetrahydro-isoquinolin-7-yloxy]-3-piperidin-1-yl-propan-2-ol] | 3 | 3 | 8
18 | COc1cccc(C2CN(C)Cc3cc(OCC4CCN(C)CC4)ccc32)c1 (stereo not drawn) [Example 92, 4-(3-Methoxy-phenyl)-2-methyl-7-(1-methyl-piperidin-4-ylmethoxy)-1,2,3,4-tetrahydro-isoquinoline] | 2 | 12 | 9
19 | CSc1ccc(C2CN(C)Cc3cc(OCCCN4CCOC[C@@H]4C)ccc32)cc1 (stereo partly drawn) [Example 215, 2-Methyl-7-[3-(3S-methyl-morpholin-4-yl)-propoxy]-4-(4-methylsulfanyl-phenyl)-1,2,3,4-tetrahydro-isoquinoline] | 5 | 1 | 5
20 | CN1Cc2cc(OCCCN3CCC(F)CC3)ccc2C(c2ccc(Sc3ncc[nH]3)nc2)C1 (stereo not drawn) [Example 195, 7-[3-(4-Fluoro-piperidin-1-yl)-propoxy]-4-[6-(1H-imidazol-2-ylsulfanyl)-pyridin-3-yl]-2-methyl-1,2,3,4-tetrahydro-isoquinoline] | 3 | 8 | 34
21 | COc1ccc(C2CN(C)Cc3cc(OCC4CN(C(C)C)CCO4)ccc32)cc1 (stereo not drawn) [Example 254, 7-(4-Isopropyl-morpholin-2-ylmethoxy)-4-(4-methoxy-phenyl)-2-methyl-1,2,3,4-tetrahydro-isoquinoline] | 9 | 9 | 7
22 | COc1ccc(C2CN(C)Cc3cc(OCCCN4CCN(C(=O)C5CCC5)CC4)ccc32)cc1 (stereo not drawn) [Example 6, Cyclobutyl-(4-{3-[4-(4-methoxy-phenyl)-2-methyl-1,2,3,4-tetrahydro-isoquinolin-7-yloxy]-propyl}-piperazin-1-yl)-methanone] | 534 | 15 | 15
23 | COc1ccc(C2CN(C)Cc3cc(OCCCN4CCC(F)CC4)ccc32)cc1 (single isomer, unassigned) [Example 1B, 7-[3-(4-Fluoro-piperidin-1-yl)-propoxy]-4-(4-methoxy-phenyl)-2-methyl-1,2,3,4-tetrahydro-isoquinoline] |  | 2 | 3
24 | COc1cccc(C2CN(C)Cc3cc(OCC4CCNCC4)ccc32)c1 (stereo not drawn) [Example 241, 4-(3-Methoxy-phenyl)-2-methyl-7-(piperidin-4-ylmethoxy)-1,2,3,4-tetrahydro-isoquinoline] | 39 |  | 10
25 | COc1ccc(C2CN(C)Cc3cc(OCCCN4CCC(F)CC4)ccc32)cc1Cl (stereo not drawn) [Example 53, 4-(3-Chloro-4-methoxy-phenyl)-7-[3-(4-fluoro-piperidin-1-yl)-propoxy]-2-methyl-1,2,3,4-tetrahydro-isoquinoline] |  | 5 | 4
26 | COc1ccc(C2CN(C)Cc3cc(OCCCN4CCC(F)CC4)ccc32)cc1 (single isomer, unassigned) [Example 1A, 7-[3-(4-Fluoro-piperidin-1-yl)-propoxy]-4-(4-methoxy-phenyl)-2-methyl-1,2,3,4-tetrahydro-isoquinoline] |  | 6 | 9
27 | CN1Cc2cc(OCCCN3CCC(F)CC3)ccc2C(c2ccc(S(C)(=O)=O)cc2)C1 (stereo not drawn) [Example 51, 7-[3-(4-Fluoro-piperidin-1-yl)-propoxy]-4-(4-methanesulfonyl-phenyl)-2-methyl-1,2,3,4-tetrahydro-isoquinoline] |  | 34 | 103
28 | COc1ccc(C2CN(C)Cc3cc(OCCCN4CCC(F)CC4)ccc32)cc1 (racemic) [Example 1, 7-[3-(4-Fluoro-piperidin-1-yl)-propoxy]-4-(4-methoxy-phenyl)-2-methyl-1,2,3,4-tetrahydro-isoquinoline] |  | 2 | 3
